Measurements from the supplement of paper PMC11628255, “Interference of metal ions on the bioluminescent signal of firefly, Renilla, and NanoLuc luciferases in high-throughput screening assays” (Frontiers in Chemistry, 2024).

Legend:
Assay in all cases: normalised percent inhibition of luminescence (vs positive and negative controls); higher = stronger inhibition
[1] = test system: firefly luciferase (FLuc)
Procedure: (§1)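 Concentration-response (>=11 concentrations) of metal salts on purified FLuc, NLuc or RLuc luminescence in screening (SC) or 100 mM HEPES (H) buffer; salt pre-incubated with enzyme 10 min at RT, read 10 min after substrate. Normalised percent inhibition vs plate positive (PTC-124, isradipine, BTS) and DMSO negative controls; triplicate wells.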

[2] = test system: Renilla luciferase (RLuc)
Procedure: as §1

[3] = test system: NanoLuc luciferase (NLuc)
Procedure: as §1

O=[N+]([O-])[O-].O=[N+]([O-])[O-].O=[N+]([O-])[O-].[Ga+3] [gallium(III) nitrate]
normalised percent inhibition [%]
Details	100 mM HEPES buffer	screening conditions buffer
[1], metal salt concentration 0.0001 mM	-32.2	19.5
[1], metal salt concentration 0.00025 mM	-34.5	-10.2
[1], metal salt concentration 0.0005 mM	-31.8	10
[1], metal salt concentration 0.001 mM	-39.5	-11.4
[1], metal salt concentration 0.01 mM	27.3	–
[1], metal salt concentration 0.025 mM	90.2	-13.5
[1], metal salt concentration 0.05 mM	98.3	–
[1], metal salt concentration 0.1 mM	99.28	–
[1], metal salt concentration 0.5 mM	99.8	–
[1], metal salt concentration 1 mM	98.9	–
[1], metal salt concentration 2.5 mM	99.5	–
[1], metal salt concentration 5 mM	100.3	–
[2], metal salt concentration 0.002 mM	–	-6.33
[2], metal salt concentration 0.005 mM	–	-7.44
[2], metal salt concentration 0.01 mM	–	-4.58
[2], metal salt concentration 0.02 mM	–	-6.17
[2], metal salt concentration 0.05 mM	–	-6.25
[2], metal salt concentration 0.1 mM	–	-7.99
[2], metal salt concentration 0.2 mM	–	-8.55
[2], metal salt concentration 0.5 mM	–	-5.45
[2], metal salt concentration 1 mM	–	-8.55
[2], metal salt concentration 2.5 mM	–	-0.965
[2], metal salt concentration 5 mM	–	71.8
[3], metal salt concentration 0.002 mM	–	3.99
[3], metal salt concentration 0.005 mM	–	6.69
[3], metal salt concentration 0.01 mM	–	2.43
[3], metal salt concentration 0.02 mM	–	4.43
[3], metal salt concentration 0.05 mM	–	6.6
[3], metal salt concentration 0.1 mM	–	7.81
[3], metal salt concentration 0.2 mM	–	8.25
[3], metal salt concentration 0.5 mM	–	12.8
[3], metal salt concentration 1 mM	–	35
[3], metal salt concentration 2.5 mM	–	89.2
[3], metal salt concentration 5 mM	–	120

[Cl][Fe][Cl] [iron(II) chloride]
normalised percent inhibition [%]
Details	[1]	[2]	[3]
metal salt concentration 0.0001 mM, 100 mM HEPES buffer	-43.3	-50	-0.558
metal salt concentration 0.00025 mM, 100 mM HEPES buffer	-33.6	-20.5	-2.01
metal salt concentration 0.0005 mM, 100 mM HEPES buffer	-33.5	-32.5	-2.14
metal salt concentration 0.001 mM, 100 mM HEPES buffer	-45.9	-19.3	-0.324
metal salt concentration 0.002 mM, screening conditions buffer	-3.52	-4.21	-2.42
metal salt concentration 0.005 mM, screening conditions buffer	1.02	1.72	1.43
metal salt concentration 0.01 mM, screening conditions buffer	2	-1.72	5.7
metal salt concentration 0.02 mM, screening conditions buffer	1.67	16.1	-0.122
metal salt concentration 0.025 mM, 100 mM HEPES buffer	53.6	16.3	3.65
metal salt concentration 0.05 mM, 100 mM HEPES buffer	99.99	43.1	5.35
metal salt concentration 0.05 mM, screening conditions buffer	3.62	-2.31	-5.75
metal salt concentration 0.1 mM, 100 mM HEPES buffer	100.4	86.8	17.2
metal salt concentration 0.1 mM, screening conditions buffer	14.5	54.2	22.5
metal salt concentration 0.2 mM, screening conditions buffer	22.9	71.6	40.4
metal salt concentration 0.5 mM, 100 mM HEPES buffer	99.99	105	61.9
metal salt concentration 0.5 mM, screening conditions buffer	98	84.8	64
metal salt concentration 1 mM, 100 mM HEPES buffer	100.5	103	85.4
metal salt concentration 1 mM, screening conditions buffer	100.7	93.3	96
metal salt concentration 2.5 mM, 100 mM HEPES buffer	100.2	108.1	99.74
metal salt concentration 2.5 mM, screening conditions buffer	99.42	105	151
metal salt concentration 5 mM, 100 mM HEPES buffer	100.3	108	101.7
metal salt concentration 5 mM, screening conditions buffer	100.9	106	160.2
